SMILES strings stand for the structures.

Holding throughout (format): cell-based
Experiment [1] has as its system SNU-423 cells. Put plainly: MTS cell proliferation assay, SNU-423. The note with it: Homo sapiens, 120 hrs incubation. The procedure: (§1) Cell lines and culture conditions: Human colon cancer cells Caco-2, HT29 and HCT15, human pancreatic cancer cells BxPC3, CFPAC-1, and CAPAN-2, liver cancer cells SNU423 and kidney cells HEK293, were obtained from American Type Culture Collection (Rockville, USA). HeLa, DLD1, U937, THP-1, and NIH3T3 cells were obtained from ATCC. Huh7 cells were obtained from (Japanese Cancer Resources Bank). HeLa cells, Huh7, DLD1 and NIH-3T3 cells were cultured in DMEM (Dulbecco's modification of Eagle's Medium; Corning) supplemented with 10% Fetal Bovine Serum (FBS; Invitrogen) and 10% Fetal Calf Serum (FCS; Atlanta Biologicals) respectively. U937, BxPC3, HCT15, SNU423 and THP-1 cells were grown in RPMI-1640 (Roswell Park Memorial Institute; Corning) supplemented with 10% Fetal Bovine Serum (FBS; Invitrogen). CFPAC-1 cells were cultured in Iscove's Modified Dulbecco's Medium (ATCC) supplemented with 10% FBS. CAPAN-2 and HT29 cells were cultured in McCoy's 5a medium supplemented with 10% FBS. Caco2 and HEK293 cells were grown in Eagle's Minimum Essential Medium (ATCC) with final 20% FBS concentration. All cells were maintained at 37° C. in 5% CO2 at constant 70% humidity.
(§2) MTS cell proliferation assay: Cells were detached from the plates using trypsin (0.25% for 3 mins, ATCC) and counted using a hemocytometer and were plated at 3000-1500 cells per well, in a 96-well format. The cells were seeded in the inner wells of 96 well plates, and media was added to the outer wells (blank). For NIH-3T3, 1500 cells were seeded in the inner wells of 96-well plates, and after 20 hours cells were treated with compound or DMSO (vehicle control) at appropriate concentrations (DMSO at final concentration of 1%). For other adherent cells 3000 HeLa, BxPC3, CFPAC-1, CAPAN-2, HEK293, HCT15, HT29, CaCo2, DLD1, Huh7 or SNU423 cells were seeded in in each well approximately 20 hrs prior to the treatment. For U937 and THP-1 suspension cells, 2500 cells were added to the wells of a 96-well plate on the day of treatment. After a 72-hour (or 120 hrs for BxPC3, CAPAN-2, SNU423) incubation with compound or vehicle, cell growth was assessed via the Promega CellTiter 96® AQueous One Solution Cell Proliferation Assay, a colorimetric method to determine the number of viable cells. 20 μL of the CellTiter 96® AQueous One Solution Reagent was added directly into cultured wells and incubated for approximately one hour, after which the absorbance at 490 nm was read with a 96-well plate reader (Opys MR Microplate Reader). GI50 values were determined from plots of the percentage of compound-treated cell growth to vehicle cell growth vs. compound concentration (GraphPad Prism; non-linear regression, log inhibitor verse normalized response with variable slope).

Experiment [2] relates to HEK-293 cells. Put plainly: MTS cell proliferation assay, HEK-293. The conditions noted are these: Homo sapiens, HEK293, 72-hour incubation. Here is the method:
(§3) Cell lines and culture conditions: Human colon cancer cells Caco-2, HT29 and HCT15, human pancreatic cancer cells BxPC3, CFPAC-1, and CAPAN-2, liver cancer cells SNU423 and kidney cells HEK293, were obtained from American Type Culture Collection (Rockville, USA). HeLa, DLD1, U937, THP-1, and NIH3T3 cells were obtained from ATCC. Huh7 cells were obtained from (Japanese Cancer Resources Bank). HeLa cells, Huh7, DLD1 and NIH-3T3 cells were cultured in DMEM (Dulbecco's modification of Eagle's Medium; Corning) supplemented with 10% Fetal Bovine Serum (FBS; Invitrogen) and 10% Fetal Calf Serum (FCS; Atlanta Biologicals) respectively. […]
(§4) MTS cell proliferation assay: Cells were detached from the plates using trypsin (0.25% for 3 mins, ATCC) and counted using a hemocytometer and were plated at 3000-1500 cells per well, in a 96-well format. […] After a 72-hour (or 120 hrs for BxPC3, CAPAN-2, SNU423) incubation with compound or vehicle, cell growth was assessed via the Promega CellTiter 96® AQueous One Solution Cell Proliferation Assay, a colorimetric method to determine the number of viable cells. 20 μL of the CellTiter 96® AQueous One Solution Reagent was added directly into cultured wells and incubated for approximately one hour, after which the absorbance at 490 nm was read with a 96-well plate reader (Opys MR Microplate Reader). […]

The test system of experiment [3] is NIH 3T3 cells. Put plainly: MTS cell proliferation assay, NIH 3T3. The conditions noted are these: Mus musculus, NIH3T3, 72-hour incubation. Here is the method: as §1, with “All cells were maintained at 37° C. in 5% CO2 at constant 70% humidity.” left out
(§5) MTS cell proliferation assay: Cells were detached from the plates using trypsin (0.25% for 3 mins, ATCC) and counted using a hemocytometer and were plated at 3000-1500 cells per well, in a 96-well format. […] After a 72-hour (or 120 hrs for BxPC3, CAPAN-2, SNU423) incubation with compound or vehicle, cell growth was assessed via the Promega CellTiter 96® AQueous One Solution Cell Proliferation Assay, a colorimetric method to determine the number of viable cells. 20 μL of the CellTiter 96® AQueous One Solution Reagent was added directly into cultured wells and incubated for approximately one hour, after which the absorbance at 490 nm was read with a 96-well plate reader (Opys MR Microplate Reader). GI50 values were determined from plots of the percentage of compound-treated cell growth to vehicle cell growth vs. compound concentration (GraphPad Prism; non-linear regression, log inhibitor verse normalized response with variable slope).

Experiment [4] relates to BxPC-3 cells. The experiment is described as follows: MTS cell proliferation assay, BxPC-3. The note with it: Homo sapiens, 120 hrs incubation. Here is the method:
as §3, §4

Experiment [5] has as its system CAPAN-2 cells. The experiment is described as follows: MTS cell proliferation assay, CAPAN-2. The conditions noted are these: Homo sapiens, 120 hrs incubation. The procedure:
as §3, §4

Experiment [6] relates to CFPAC-1 cells. Put plainly: MTS cell proliferation assay, CFPAC-1. The conditions noted are these: Homo sapiens, 72-hour incubation. Here is the method:
as §3, §4

Experiment [7] has as its system CaCo-2 cells. Put plainly: MTS cell proliferation assay, CaCo-2. The note with it: Homo sapiens, 72-hour incubation. The procedure: as §3, §4
Experiment [8] relates to HCT-15 cells. Put plainly: MTS cell proliferation assay, HCT-15. The note with it: Homo sapiens, 72-hour incubation. Here is the method:
as §3, §4

Experiment [9] relates to HT-29 cells. Put plainly: MTS cell proliferation assay, HT-29. The conditions noted are these: Homo sapiens, 72-hour incubation. The procedure:
as §3, §4

The subject of experiment [10] is U937 cells. The experiment is described as follows: MTS cell proliferation assay, U937. The conditions noted are these: Homo sapiens, U-937, 72-hour incubation. Here is the method:
as §3, §4

Experiment [11] concerns THP-1 cells. Put plainly: MTS cell proliferation assay, THP-1. The conditions noted are these: Homo sapiens, 72-hour incubation. Here is the method: as §3, §4
In experiment [12] the test system is HuH7 cells. Put plainly: MTS cell proliferation assay, HuH7. The note with it: Homo sapiens, Huh-7, 72-hour incubation. Here is the method: as §1, §2
For experiment [13], the system named is HeLa cells. Put plainly: MTS cell proliferation assay, HeLa. The note with it: Homo sapiens, 72-hour incubation. The procedure:
as §1, with “All cells were maintained at 37° C. in 5% CO2 at constant 70% humidity.” left out
as §5

Experiment [14] relates to RPE-hTERT Flp-In cells. Put plainly: FQI34/FQI1 comparison, mitotic defects in RPE-hTERT Flp-In cells. Here is the method: RPE-hTERT Flp-In cells were incubated in serum-free DMEM:F12 media for 24 hours to synchronize the cells in G0/G1. Cells were stimulated to reenter the cell cycle with DMEM:F12 media containing 10% Fetal Bovine Serum. After 24 hours, the cells were treated with DMSO (vehicle), FQI1 (2.5 μM or 5 μM), or FQI34 (250 nM or 500 nM) for one hour. The cells were washed twice with 1×Phosphate-buffered Saline and fixed with PHEM (3.7% formaldehyde in 100 mM PIPES at pH 6.8, 10 mM EGTA, 1 mM magnesium chloride, and 0.2% Triton X-100) for 10 minutes at room temperature. The fixed cells were stained for α-tubulin using a mouse anti-α-tubulin antibody (Fisher #62204). Secondary antibodies were: DMSO/FQI1 samples—goat anti-mouse IgG conjugated to Alexa 546 (Thermo Fisher #A11003); FQI34 samples—goat anti-mouse IgG conjugated to Texas Red (Fisher #T-862). DNA was stained with Hoechst 33342. Cells were imaged using a Nikon NiE using the 40× objective and images were captured using a DS-Qi1 Mc 12 bit camera. Scale bars and merged images were generated using Fiji software.

Take `CCOc1cc(N(C)C)ccc1C1CC(=O)Nc2cc3c(cc21)OCO3` (stereo not drawn) [FQI-34]: the GI50 in experiment [1] amounted to 384 nM; in [2], 219 nM; in experiment [3], 730 nM; in experiment [4], 270 nM; in [5], 239 nM; in experiment [6], 676 nM. Further, the GI50 in experiment [7] came out at 501 nM; in [8], 224 nM; in [9], 316 nM; in experiment [10] it was 250 nM; in experiment [11], 4800 nM; in [12], 141 nM. In addition, the GI50 in [13] is 462 nM. Further, in experiment [14] (FQI34 250 nM or 500 nM vs FQI1 2.5 μM or 5 μM, one hour), the “potency for causing mitotic defects relative to FQI1” value is listed as “at least 10 fold”. Moreover, the “chromosome and spindle phenotype (DNA and α-tubulin immunofluorescence)” value in experiment [14] (one hour treatment, FIG. 33) is “condensed, but nonaligned chromosomes and disrupted spindles”.

The values above are taken from US11420977B2, “Late SV40 (LSF) inhibitors” (Trustees of Boston University, priority 2018, dated 2022).
